Data as given in the supplement of paper PMC10307832.

Key:
Test in all cases: relative viability (nuclei count vs DMSO), 5 days (fraction); higher = more cells survive
[1] = compound: CC1(C)CNc2cc(NC(=O)c3cccnc3NCc3ccncc3)ccc21 [Motesanib] + Nc1nc2[nH]cc(CCc3ccc(C(=O)N[C@@H](CCC(=O)O)C(=O)O)cc3)c2c(=O)[nH]1 [Pemetrexed] (partner 0.2 µM)
How it was run: (§1)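 Lung cancer cell lines in 1536-well plates were dosed by pin tool the day after seeding, either with one drug alone or with a fixed anchor-drug dose plus five library-drug doses (not always all listed) in √10 steps. After 5 days, cells were fixed and their nuclei stained in one step (final 0.05% Triton X-100, 1% formaldehyde, 1 ug/ml Hoechst), then counted on 4× images. Relative viability is the nuclei count in treated wells divided by that in vehicle wells. Values are medians of duplicate plates.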

[2] = compound: CC1(C)CNc2cc(NC(=O)c3cccnc3NCc3ccncc3)ccc21 [Motesanib] + C[C@@H](Oc1cc(-c2cnn(C3CCNCC3)c2)cnc1N)c1c(Cl)ccc(F)c1Cl [Crizotinib] (partner 1 µM)
How it was run: as §1

[3] = compound: CC1(C)CNc2cc(NC(=O)c3cccnc3NCc3ccncc3)ccc21 [Motesanib] + CCNC(=O)c1noc(-c2cc(C(C)C)c(O)cc2O)c1-c1ccc(CN2CCOCC2)cc1 [Luminespib] (partner 0.01 µM)
How it was run: as §1

[4] = compound: C[C@@]1(C(=O)Nc2ccc(F)nc2)CCCN1c1nc(Nc2cc(C3CC3)n[nH]2)c2cccn2n1 + COc1cccc2cc(-c3nc([C@H]4CC[C@H](C(=O)O)CC4)n4ncnc(N)c34)[nH]c12 [OSI-027] (partner 0.5 µM)
How it was run: as §1

Cell Line	relative viability ([1]; first compound 0.01 µM)	relative viability ([1]; first compound 0.03162 µM)	relative viability ([1]; first compound 0.1 µM)	relative viability ([1]; first compound 0.3162 µM)	relative viability ([1]; first compound 1 µM)	relative viability ([2]; first compound 0.01 µM)	relative viability ([2]; first compound 0.03162 µM)	relative viability ([2]; first compound 0.1 µM)	relative viability ([2]; first compound 0.3162 µM)	relative viability ([2]; first compound 1 µM)	relative viability ([3]; first compound 0.01 µM)	relative viability ([3]; first compound 0.03162 µM)	relative viability ([3]; first compound 0.1 µM)	relative viability ([3]; first compound 0.3162 µM)	relative viability ([3]; first compound 1 µM)	relative viability ([4]; first compound 0.04 µM)	relative viability ([4]; first compound 0.1265 µM)	relative viability ([4]; first compound 0.4 µM)	relative viability ([4]; first compound 1.265 µM)
LXF-289	0.704	0.845	0.898	0.896	0.57	0.822	0.823	0.82	0.842	0.867	0.639	0.71	0.655	0.724	0.743	0.633	0.463	0.407	0.353
NCI-H23	0.645	0.624	0.518	0.447	0.545	0.484	0.373		0.497	0.612		0.193	0.209	0.205	0.222	0.397	0.232	0.225	0.266
NCI-H322M	0.681	0.627	0.556	0.691	0.605	1.06	0.835	1.04	0.974	0.946	0.913	0.951	0.88	0.842	0.949	0.483	0.364	0.363	0.321
NCI-H358	0.161	0.162	0.169	0.164	0.166	0.578	0.346	0.763	0.586	0.596	0.317	0.333	0.402	0.479	0.369	0.415	0.179	0.15	0.138
NCI-H522	1.01	1.05	0.955	0.844	1.03							1.14	1.22	1.18	1.1	0.589	0.36	0.735	0.704
NCI-H727						0.96	0.839	0.786	0.808	0.723	0.292	0.261	0.729	0.332	0.352	0.373	0.273	0.383	0.351
NCI-H1299						0.938	0.978	0.951	0.949	0.936									
NCI-H1395	0.923	0.815	0.826	0.881	0.765						0.662	0.665	0.65	0.876	0.866	0.727	0.561	0.668	0.665
NCI-H1648	0.707			0.674	0.547											0.25			0.229
NCI-H1703						0.826	0.545	0.303	0.155	0.172									
NCI-H1793	0.862	0.894	0.843	0.856	0.853						0.26	0.196	0.199	0.463	0.182	0.254	0.195		0.196
NCI-H2342	0.8	0.748	0.795	0.794	0.912						0.647	0.622	0.795	0.642	0.841	0.636	0.561	0.448	0.479
SW 900	0.459	0.416	0.356	0.301	0.303						0.172	0.181	0.182	0.168	0.167	0.549	0.518	0.464	0.551
